SMILES strings stand for the structures.

Chain of MALT1-GS-Ub (6-His-hMALT-1 residues 339-715 fused to ubiquitin) (Q9UDY8 other isoform, or with tags, fused parts or gaps): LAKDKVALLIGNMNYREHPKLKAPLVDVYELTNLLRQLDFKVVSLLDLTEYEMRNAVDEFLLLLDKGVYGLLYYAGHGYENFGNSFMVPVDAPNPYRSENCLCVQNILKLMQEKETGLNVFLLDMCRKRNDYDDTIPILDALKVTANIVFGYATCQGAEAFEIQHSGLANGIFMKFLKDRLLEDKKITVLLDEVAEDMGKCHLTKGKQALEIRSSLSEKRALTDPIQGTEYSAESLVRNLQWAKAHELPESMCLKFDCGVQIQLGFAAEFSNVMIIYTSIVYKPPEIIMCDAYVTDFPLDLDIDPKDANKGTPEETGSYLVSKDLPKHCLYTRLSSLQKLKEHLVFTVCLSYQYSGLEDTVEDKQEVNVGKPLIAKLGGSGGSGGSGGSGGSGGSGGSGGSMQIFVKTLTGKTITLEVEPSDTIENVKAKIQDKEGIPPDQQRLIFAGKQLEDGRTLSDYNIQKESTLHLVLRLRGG

In the first test the target is MALT1-GS-Ub (6-His-hMALT-1 residues 339-715 fused to ubiquitin) (Homo sapiens (Human), UniProt Q9UDY8). Nature of the test: MALT1 Protease Assay 1 (Assay 1), cleavage of fluorogenic tetrapeptide substrate. Type of test: biochemical. Particulars: MALT1-GS-Ub 300-600 nM, Ac-LVSR-AMC 100 μM, 30 min preincubation, 60 min read. On the procedure:
MALT1 Protease Assay 1 (Assay 1)
(§1) MALT1 protease activity was assessed in vitro by measuring the cleavage of a fluorogenic tetrapeptide substrate.
A protein (MALT1-GS-Ub) comprising 6-His-hMALT-1 (residues 339-715), fused to ubiquitin with an 8× GGS linker, was expressed in E. coli, and purified using chitin resin to remove contaminants followed by affinity chromatography purification and size-exclusion chromatography, according to standard protocols.
Briefly, MALT1-GS-Ub (300-600 nM) was incubated with substrate (Ac-LVSR-AMC, 100 μM) in reaction buffer comprising 50 mM HEPES (pH7.0), 25 mM KCl, 0.1% (v/v) CHAPS and 1 mM TCEP.
(§2) Test compounds dissolved in DMSO were dispensed into assay plates (384-well, black, shallow ProxiPlates). 7 μl enzyme solution was added and incubated at room temperature for 30 minutes to allow compound binding to occur. 2 μl substrate solution was then added and the fluorescence (excitation 360 nm, emission 460 nm) read every 15 minutes using a suitable plate reader. Final assay DMSO concentration was 1%. Linearity over 60 minutes was confirmed, and assay signal was calculated by subtracting raw counts at time 0 from those at 60 minutes. % inhibition was calculated for each well, using no enzyme for 100% inhibition controls and no compound for 0% inhibition controls. IC50 values were calculated using GraphPad Prism using a 4-parameter non-linear regression curve fit.
A word on the IC50: it is the concentration at which inhibition is half-maximal. High values mean lower potency, low ones higher potency. Take `C[C@@H]1CN(C(=O)Nc2cnc(-n3nccn3)c(C(F)(F)F)c2)c2cccc(Br)c2[C@@H]1C` (relative stereo) [Example 11, cis-N-(6-(2H-1,2,3-Triazol-2-yl)-5-(trifluoromethyl)pyridin-3-yl)-5-bromo-3,4-dimethyl-3,4-dihydroquinoline-1 (2H)-carboxamide]: the IC50 was 4100 nM. Still for that read-out and setting: under `O=C(Nc1cnc(-n2nccn2)c(Cl)c1)N1CC(C(F)(F)F)Oc2c(Br)cncc21` (single isomer, unassigned) [Example 39, 8-Bromo-N-(5-chloro-6-(2H-1,2,3-triazol-2-yl)pyridin-3-yl)-2-(trifluoromethyl)-2,3-dihydro-4H-pyrido[4,3-b][1,4]oxazine-4-carboxamide] stands 5800 nM; under `O=C(Nc1cnc(-n2nccn2)c(Cl)c1)N1CCCc2c(Br)cccc21` [Example 1, 5-Bromo-N-(5-chloro-6-(2H-1,2,3-triazol-2-yl)pyridin-3-yl)-3,4-dihydroquinoline-1 (2H)-carboxamide], 4500 nM; under `O=C(Nc1cnc(-n2nccn2)c(C(F)(F)F)c1)N1CCCc2c(Br)cccc21` [Example 2, N-(6-(2H-1,2,3-Triazol-2-yl)-5-(trifluoromethyl)pyridin-3-yl)-5-bromo-3,4-dihydroquinoline-1 (2H)-carboxamide], 3200 nM. Same read-out and setting: as for `COc1cccc2c1CCCN2C(=O)Nc1cnc(-n2nccn2)c(Cl)c1` [Example 3, N-(5-Chloro-6-(2H-1,2,3-triazol-2-yl)pyridin-3-yl)-5-methoxy-3,4-dihydroquinoline-1 (2H)-carboxamide], the figure is 3000 nM.

For a further test, the target named is FL hMALT1 enzyme (Homo sapiens (Human), UniProt Q9UDY8). Kind of test: MALT1 Protease Assay 2 (Assay 2), higher sensitivity, cleavage of fluorogenic tetrapeptide substrate. It counts as biochemical. Conditions: FL hMALT1 1-10 nM, Ac-LVSR-AMC 100 μM, 0.7 M sodium citrate, 30 min preincubation, 60 min read. On the procedure: MALT1 Protease Assay 2 (Assay 2)
Chain of FL hMALT1 enzyme (Q9UDY8 whole entry): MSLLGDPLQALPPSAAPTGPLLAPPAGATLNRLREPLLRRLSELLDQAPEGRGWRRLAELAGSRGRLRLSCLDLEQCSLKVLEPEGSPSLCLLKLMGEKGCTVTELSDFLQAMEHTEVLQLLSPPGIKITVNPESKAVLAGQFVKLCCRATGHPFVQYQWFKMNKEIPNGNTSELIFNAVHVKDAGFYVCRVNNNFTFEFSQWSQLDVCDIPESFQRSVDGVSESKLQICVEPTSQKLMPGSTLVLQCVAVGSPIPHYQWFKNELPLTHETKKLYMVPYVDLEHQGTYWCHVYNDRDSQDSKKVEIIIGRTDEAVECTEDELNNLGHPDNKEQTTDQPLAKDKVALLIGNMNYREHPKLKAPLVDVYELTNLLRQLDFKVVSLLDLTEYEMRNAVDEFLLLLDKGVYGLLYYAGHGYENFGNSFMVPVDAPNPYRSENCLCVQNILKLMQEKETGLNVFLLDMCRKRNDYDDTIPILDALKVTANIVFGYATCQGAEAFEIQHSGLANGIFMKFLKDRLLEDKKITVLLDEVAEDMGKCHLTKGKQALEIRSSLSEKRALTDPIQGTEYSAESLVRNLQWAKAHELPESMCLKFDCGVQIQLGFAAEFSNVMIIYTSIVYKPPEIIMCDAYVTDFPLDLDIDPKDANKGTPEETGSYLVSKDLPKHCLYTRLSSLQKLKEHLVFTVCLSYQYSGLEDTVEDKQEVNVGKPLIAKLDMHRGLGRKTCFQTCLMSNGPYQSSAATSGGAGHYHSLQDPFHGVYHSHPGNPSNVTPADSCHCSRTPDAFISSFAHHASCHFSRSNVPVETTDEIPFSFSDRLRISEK
as §1
For a higher sensitivity assay, commercially available FL hMALT1 enzyme (Abcam, 1-10 nM) was incubated with substrate (Ac-LVSR-AMC, 100 μM) in reaction buffer comprising 50 mM HEPES (pH7.0), 25 mM KCl, 0.1% (v/v) CHAPS, 1 mM TCEP and 0.7 M sodium citrate.
as §2
In turn, `C[C@@H]1CN(C(=O)Nc2cnc(-n3nccn3)c(C(F)(F)F)c2)c2cccc(Br)c2[C@@H]1C` (relative stereo) [Example 11, cis-N-(6-(2H-1,2,3-Triazol-2-yl)-5-(trifluoromethyl)pyridin-3-yl)-5-bromo-3,4-dimethyl-3,4-dihydroquinoline-1 (2H)-carboxamide] returned a 50% inhibitory concentration (IC50) of 1200 nM. On to `O=C(Nc1cnc(-n2nccn2)c(Cl)c1)N1CC(C(F)(F)F)Oc2c(Br)cncc21` (single isomer, unassigned) [Example 39, 8-Bromo-N-(5-chloro-6-(2H-1,2,3-triazol-2-yl)pyridin-3-yl)-2-(trifluoromethyl)-2,3-dihydro-4H-pyrido[4,3-b][1,4]oxazine-4-carboxamide], for which half-maximal inhibition (IC50) required 1200 nM. In the case of `Cc1ncc2c(c1Br)OC(C(F)(F)F)CN2C(=O)Nc1cnc(-n2nccn2)c(Cl)c1` (single isomer, unassigned) [Example 42, 8-Bromo-N-(5-chloro-6-(2H-1,2,3-triazol-2-yl)pyridin-3-yl)-7-methyl-2-(trifluoromethyl)-2,3-dihydro-4H-pyrido[4,3-b][1,4]oxazine-4-carboxamide], inhibition was half-maximal at 3400 nM (IC50). Take `CC1CN(C(=O)Nc2cnc(-n3nccn3)c(Cl)c2)c2cncc(Br)c2O1` (single isomer, unassigned) [Example 44, 8-Bromo-N-(5-chloro-6-(2H-1,2,3-triazol-2-yl)pyridin-3-yl)-2-methyl-2,3-dihydro-4H-pyrido[4,3-b][1,4]oxazine-4-carboxamide]: the IC50 amounted to 330 nM. `CC1CN(C(=O)Nc2cnc(-n3nccn3)c(Cl)c2)c2cncc(Br)c2O1` (single isomer, unassigned) [Example 45, 8-Bromo-N-(5-chloro-6-(2H-1,2,3-triazol-2-yl)pyridin-3-yl)-2-methyl-2,3-dihydro-4H-pyrido[4,3-b][1,4]oxazine-4-carboxamide] registered an IC50 of 200 nM. The compound `O=C(Nc1cnc(-n2nccn2)c(Cl)c1)N1CC(C2CC2)Oc2c(Br)cncc21` (single isomer, unassigned) [Example 50, 8-Bromo-N-(5-chloro-6-(2H-1,2,3-triazol-2-yl)pyridin-3-yl)-2-cyclopropyl-2,3-dihydro-4H-pyrido[4,3-b][1,4]oxazine-4-carboxamide] showed a half-inhibitory concentration (IC50) of 240 nM. On the same count and under the same terms, under `O=C(Nc1cnc(-n2nccn2)c(Cl)c1)N1CC(C2CC2)Oc2c(Br)cncc21` (single isomer, unassigned) [Example 51, 8-Bromo-N-(5-chloro-6-(2H-1,2,3-triazol-2-yl)pyridin-3-yl)-2-cyclopropyl-2,3-dihydro-4H-pyrido[4,3-b][1,4]oxazine-4-carboxamide] stands 250 nM; under `Cc1ncc2c(c1C#N)OC(C(F)(F)F)CN2C(=O)Nc1cnc(-n2nccn2)c(Cl)c1` (single isomer, unassigned) [Example 52, N-(5-Chloro-6-(2H-1,2,3-triazol-2-yl)pyridin-3-yl)-8-cyano-7-methyl-2-(trifluoromethyl)-2,3-dihydro-4H-pyrido[4,3-b][1,4]oxazine-4-carboxamide], 7600 nM; under `N#Cc1cncc2c1OC(C(F)(F)F)CN2C(=O)Nc1cnc(-n2nccn2)c(Cl)c1` (single isomer, unassigned) [Example 54, N-(5-Chloro-6-(2H-1,2,3-triazol-2-yl)pyridin-3-yl)-8-cyano-2-(trifluoromethyl)-2,3-dihydro-4H-pyrido[4,3-b][1,4]oxazine-4-carboxamide], 8200 nM. The same measure, in the same setting: as for `COc1cncc2c1OC(C(F)(F)F)CN2C(=O)Nc1cnc(-n2nccn2)c(Cl)c1` (single isomer, unassigned) [Example 56, N-(5-Chloro-6-(2H-1,2,3-triazol-2-yl)pyridin-3-yl)-8-methoxy-2-(trifluoromethyl)-2,3-dihydro-4H-pyrido[4,3-b][1,4]oxazine-4-carboxamide], the figure is 5100 nM; as for `COc1cncc2c1OC(C(F)(F)F)CN2C(=O)Nc1cnc(-n2nccn2)c(Cl)c1` (single isomer, unassigned) [Example 57, N-(5-Chloro-6-(2H-1,2,3-triazol-2-yl)pyridin-3-yl)-8-methoxy-2-(trifluoromethyl)-2,3-dihydro-4H-pyrido[4,3-b][1,4]oxazine-4-carboxamide], 170 nM. As for `Cc1ncc2c(c1C#N)OC(C(F)(F)F)CN2C(=O)Nc1cnc(OC(F)F)c(Cl)c1` (single isomer, unassigned) [Example 60, N-(5-Chloro-6-(difluoromethoxy)pyridin-3-yl)-8-cyano-7-methyl-2-(trifluoromethyl)-2,3-dihydro-4H-pyrido[4,3-b][1,4]oxazine-4-carboxamide], the IC50 was 3820 nM. The compound `Cc1ncc2c(c1C#N)OC(C(F)(F)F)CN2C(=O)Nc1cnc(-n2nccn2)c(C#N)c1` (single isomer, unassigned) [Example 62, 8-Cyano-N-(5-cyano-6-(2H-1,2,3-triazol-2-yl)pyridin-3-yl)-7-methyl-2-(trifluoromethyl)-2,3-dihydro-4H-pyrido[4,3-b][1,4]oxazine-4-carboxamide] registered a half-inhibitory concentration (IC50) of 6500 nM.

For the compound `Cc1ncc2c(c1C#N)OC(C(F)(F)F)CN2C(=O)Nc1cnc(-n2nccn2)c(C#N)c1` (single isomer, unassigned) [Example 63, 8-Cyano-N-(5-cyano-6-(2H-1,2,3-triazol-2-yl)pyridin-3-yl)-7-methyl-2-(trifluoromethyl)-2,3-dihydro-4H-pyrido[4,3-b][1,4]oxazine-4-carboxamide], inhibition was half-maximal at 104 nM (IC50).

In turn, `Cc1ncc2c(c1C#N)OC(C(F)(F)F)CN2C(=O)Nc1cnc(-n2nccn2)c(C(F)(F)F)c1` (single isomer, unassigned) [Example 64, N-(6-(2H-1,2,3-triazol-2-yl)-5-(trifluoromethyl)pyridin-3-yl)-8-cyano-7-methyl-2-(trifluoromethyl)-2,3-dihydro-4H-pyrido[4,3-b][1,4]oxazine-4-carboxamide] came in with a half-inhibitory concentration (IC50) of 2120 nM. The compound `Cc1ncc2c(c1C#N)OC(C(F)(F)F)CN2C(=O)Nc1cnc(-n2nccn2)c(C(F)(F)F)c1` (single isomer, unassigned) [Example 65, N-(6-(2H-1,2,3-triazol-2-yl)-5-(trifluoromethyl)pyridin-3-yl)-8-cyano-7-methyl-2-(trifluoromethyl)-2,3-dihydro-4H-pyrido[4,3-b][1,4]oxazine-4-carboxamide] came in with a concentration for half-maximal inhibition (IC50) of 17 nM.

Regarding `Cc1ncc2c(c1C#N)OC(C(F)(F)F)CN2C(=O)Nc1cnc(C(=O)N(C)C2CC2)c(C(F)F)c1` (single isomer, unassigned) [Example 66, 8-Cyano-N-(6-(cyclopropyl(methyl)carbamoyl)-5-(difluoromethyl)pyridin-3-yl)-7-methyl-2-(trifluoromethyl)-2,3-dihydro-4H-pyrido[4,3-b][1,4]oxazine-4-carboxamide], the IC50 came out at 9100 nM. The same measure, in the same setting: under `Cc1ncc2c(c1C#N)OC(C(F)(F)F)CN2C(=O)Nc1cnc(C(=O)N(C)C2CC2)c(C(F)F)c1` (single isomer, unassigned) [Example 67, 8-Cyano-N-(6-(cyclopropyl(methyl)carbamoyl)-5-(difluoromethyl)pyridin-3-yl)-7-methyl-2-(trifluoromethyl)-2,3-dihydro-4H-pyrido[4,3-b][1,4]oxazine-4-carboxamide] stands 146 nM; under `COc1cccc2c1CCCN2C(=O)Nc1cnc(-n2nccn2)c(Cl)c1` [Example 3, N-(5-Chloro-6-(2H-1,2,3-triazol-2-yl)pyridin-3-yl)-5-methoxy-3,4-dihydroquinoline-1 (2H)-carboxamide], 610 nM.

Compound `N#CC1Cc2c(Br)cncc2N(C(=O)Nc2cnc(-n3nccn3)c(Cl)c2)C1` (centres unmarked) [Example 58, 5-Bromo-N-(5-chloro-6-(2H-1,2,3-triazol-2-yl)pyridin-3-yl)-3-cyano-3,4-dihydro-1,7-naphthyridine-1 (2H)-carboxamide] registered a concentration for half-maximal inhibition (IC50) of 1290 nM. On to `Cc1ncc2c(c1C#N)OC(C(F)(F)F)CN2C(=O)Nc1ccnc(C(F)(F)F)c1` (centres unmarked) [Example 59, 8-Cyano-7-methyl-2-(trifluoromethyl)-N-(2-(trifluoromethyl)pyridin-4-yl)-2,3-dihydro-4H-pyrido[4,3-b][1,4]oxazine-4-carboxamide], for which it took 820 nM to reach half-maximal inhibition (IC50).

The values are drawn from patent US20250136577A1, “HETEROCYCLIC DERIVATIVES AS MALT1 INHIBITORS” (C4X Discovery Limited, priority 2022, published 2025).
